According to ChEMBL document CHEMBL5108002, “Design, synthesis, and biological evaluation of novel 7-substituted 10,11-methylenedioxy-camptothecin derivatives against drug-resistant small-cell lung cancer in vitro and in vivo” (Eur J Med Chem, 2022):
pIC50: −log10 of the molar value. Activity calls are given as the source filed them. No cut-off for these calls is given here.

Tests used:
H69AR [1] = test: Induction of apoptosis in human NCI-H69AR cells assessed as inhibition of XIAP protein expression at 0.1 to 100 nM incubated for 24 hrs by Western blot analysis; type: functional, cell-based; conditions: dose 0.1-100 nM
NCI-H446 [2] = test: Induction of apoptosis in human NCI-H446 cells assessed as downregulation of survivin protein expression at 0.1 to 100 nM measured for 48 hrs by Western blot analysis; type: functional, cell-based; conditions: dose 0.1-100 nM
NCI-H446 [3] = test: Antitumor activity against Irinotecan-resistant human NCI-H446 cells xenografted in BALB/c nude mouse assessed as tumor weight at 3 mg/kg, IG administered once a week and measured 3 times a week for 35 days; type: functional; conditions: time 35 day
NCI-H69 [4] = test: Induction of apoptosis in human NCI-H69 cells assessed as inhibition of Bcl-2 protein expression at 0.1 to 100 nM incubated for 24 hrs by Western blot analysis; type: functional, cell-based; conditions: dose 0.1-100 nM
NCI-H446 [5] = test: Induction of apoptosis in human NCI-H446 cells assessed as reduction in Mcl-1 mRNA level at 0.1 to 100 nM incubated for 24 hrs by RT-PCR analysis; type: functional, cell-based; conditions: dose 0.1-100 nM
H69AR [6] = test: Induction of apoptosis in human NCI-H69AR cells assessed as reduction in survivin mRNA expression at 0.1 to 100 nM incubated for 24 hrs by RT-PCR analysis; type: functional, cell-based; conditions: dose 0.1-100 nM
NCI-H446 [7] = test: Induction of apoptosis in human NCI-H446 cells assessed as inhibition of Bcl-2 protein expression incubated for 24 hrs by Western blot analysis; type: functional, cell-based; conditions: dose 0.1-100 nM
NCI-H69 [8] = test: Induction of apoptosis in human NCI-H69 cells assessed as reduction in Bcl-2 mRNA expression at 0.1 to 100 nM incubated for 24 hrs by RT-PCR analysis; type: functional, cell-based; conditions: dose 0.1-100 nM
NCI-H69 [9] = test: Induction of apoptosis in human NCI-H69 cells assessed as increase in cleaved-caspase 9 protein expression at 0.1 to 100 nM measured after 24 hrs by Western blot analysis; type: functional, cell-based; conditions: dose 0.1-100 nM
H69AR [10] = test: Induction of apoptosis in human NCI-H69AR cells assessed as reduction in Bcl-2 mRNA expression at 0.1 to 100 nM incubated for 24 hrs by RT-PCR analysis; type: functional, cell-based; conditions: dose 0.1-100 nM
NCI-H69 [11] = test: Induction of apoptosis in human NCI-H69 cells assessed as reduction in Mcl-1 mRNA expression at 0.1 to 100 nM incubated for 24 hrs by RT-PCR analysis; type: functional, cell-based; conditions: dose 0.1-100 nM
H69AR [12] = test: Induction of apoptosis in human NCI-H69AR cells assessed as dead cells at 1 nM incubated for 24 hrs by AnnexinV-FITC/PI staining based flow cytometry analysis (reference value: 1.92 %); type: functional
NCI-H446 [13] = test: Induction of apoptosis in human NCI-H446 cells assessed as dead cells at 10 nM incubated for 24 hrs by AnnexinV-FITC/PI staining based flow cytometry analysis (reference value: 0.22 %); type: functional
H69AR [14] = test: Induction of apoptosis in human NCI-H69AR cells assessed as inhibition of Mcl-1 protein expression at 0.1 to 100 nM incubated for 24 hrs by Western blot analysis; type: functional, cell-based; conditions: dose 0.1-100 nM
SW-620 = test: Antiproliferative activity against human SW-620 cells assessed as inhibition of cell growth incubated for 72 hrs by SRB assay; type: functional, cell-based; conditions: SW-620, 72 h
H69AR [15] = test: Induction of apoptosis in human NCI-H69AR cells assessed as increase in cleaved-caspase 3 protein expression at 0.1 to 100 nM measured after 24 hrs by Western blot analysis; type: functional, cell-based; conditions: dose 0.1-100 nM
SH-SY5Y = test: Antiproliferative activity against human SH-SY5Y cells assessed as inhibition of cell growth incubated for 72 hrs by SRB assay; type: functional, cell-based
NCI-H446 [16] = test: Induction of apoptosis in human NCI-H446 cells assessed as late apoptotic cells at 0.1 nM incubated for 24 hrs by AnnexinV-FITC/PI staining based flow cytometry analysis (reference value: 0.37 %); type: functional
NCI-H69 [17] = test: Antiproliferative activity against human NCI-H69 cells assessed as inhibition of cell growth incubated for 72 hrs by SRB assay; type: functional, cell-based; conditions: NCI-H69, 72 h
H69AR [18] = test: Induction of apoptosis in human NCI-H69AR cells assessed as early apoptotic cells at 100 nM incubated for 24 hrs by AnnexinV-FITC/PI staining based flow cytometry analysis (reference value: 0.35 %); type: functional
NCI-H446 [19] = test: Antitumor activity against human NCI-H446 cells xenografted in BALB/c nude mouse assessed as reduction in large tumor growth at 3 mg/kg, IG administered for 31 days by electronic caliper method; type: functional, organism-based; conditions: time 31.0 day
[20] = Resistance index, ratio of IC50 for antiproliferative activity against Irinotecan-resistant human NCI-H446 cells to IC50 for antiproliferative activity against human NCI-H446 cells; type: functional
Mus musculus [21] = test: Downregulation of Mcl-1 protein expression in tumor of BALB/c mouse xenografted with human NCI-H446 cells at 0.75 mg/kg, IG administered intragastrically once a week for 28 days by western blot analysis; type: functional, organism-based; conditions: time 28.0 day
NCI-H446 [22] = test: Antitumor activity against Irinotecan-resistant human NCI-H446 cells xenografted in BALB/c nude mouse assessed as tumor weight at 3 mg/kg, IG administered once a week and measured 3 times a week for 35 days relative to control; type: functional; conditions: NCI-H446, po, 840 h, time 35 day, read-out: TGI
H69AR [23] = test: Induction of apoptosis in human NCI-H69AR cells assessed as reduction in Mcl-1 mRNA expression at 0.1 to 100 nM incubated for 24 hrs by RT-PCR analysis; type: functional, cell-based; conditions: dose 0.1-100 nM
NCI-H446 [24] = test: Induction of apoptosis in human NCI-H446 cells assessed as inhibition of Bcl-1 protein expression at 0.1 to 100 nM incubated for 24 hrs by Western blot analysis; type: functional, cell-based; conditions: dose 0.1-100 nM
H69AR [25] = test: Induction of apoptosis in human NCI-H69AR cells assessed as early apoptotic cells at 1 nM incubated for 24 hrs by AnnexinV-FITC/PI staining based flow cytometry analysis (reference value: 0.35 %); type: functional
H69AR [26] = test: Induction of apoptosis in human NCI-H69AR cells assessed as late apoptotic cells at 100 nM incubated for 24 hrs by AnnexinV-FITC/PI staining based flow cytometry analysis (reference value: 2.99 %); type: functional
Mus musculus [27] = test: Downregulation of Bcl-2 protein expression in tumor of BALB/c mouse xenografted with human NCI-H446 cells at 0.75 mg/kg, IG administered intragastrically once a week for 28 days by western blot analysis; type: functional, organism-based; conditions: time 28.0 day
NCI-H446 [28] = test: Induction of apoptosis in human NCI-H446 cells assessed as reduction in XIAP mRNA level at 0.1 to 100 nM incubated for 24 hrs by RT-PCR analysis; type: functional, cell-based; conditions: dose 0.1-100 nM
NCI-H446 [29] = test: Induction of apoptosis in human NCI-H446 cells assessed as increase in cleaved-caspase 9 protein expression at 0.1 to 100 nM measured after 24 to 48 hrs by Western blot analysis; type: functional, cell-based; conditions: dose 0.1-100 nM, time 24-48 hrs
NCI-H446 [30] = test: Induction of apoptosis in human NCI-H446 cells assessed as reduction in Bcl-2 mRNA level at 0.1 to 100 nM incubated for 24 hrs by RT-PCR analysis; type: functional, cell-based; conditions: dose 0.1-100 nM
NCI-H446 [31] = test: Induction of apoptosis in human NCI-H446 cells assessed as inhibition of Mcl-1 protein expression incubated for 24 hrs by Western blot analysis; type: functional, cell-based; conditions: dose 0.1-100 nM

Compound: CC[C@@]1(O)C(=O)OCc2c1cc1n(c2=O)Cc2c-1nc1cc3c(cc1c2-c1ccoc1)OCO3
- inhibition (H69AR [1]): Active
- Activity (NCI-H446 [2]): Active
- Activity (NCI-H446 [3]): 0.15 g
- inhibition (NCI-H69 [4]): Active
- Activity (NCI-H446 [5]): Active
- Activity (H69AR [6]): Active
- inhibition (NCI-H446 [7]): Active
- Activity (NCI-H69 [8]): Active
- Activity (NCI-H69 [9]): Active
- Activity (H69AR [10]): Active
- Activity (NCI-H69 [11]): Active
- Activity (H69AR [12]): 2.61%
- Activity (NCI-H446 [13]): 2.78%
- inhibition (H69AR [14]): Active
- pIC50 (SW-620): 9.96
- Activity (H69AR [15]): Active
- pIC50 (SH-SY5Y): 8.10
- Activity (NCI-H446 [16]): 3.73%
- pIC50 (NCI-H69 [17]): 7.84
- Activity (H69AR [18]): 1.73%
- Activity (NCI-H446 [19]): Active
- Ratio IC50 [20]: 0.64
- Activity (Mus musculus [21]): Active
- inhibition in vivo at 3 mg/kg (NCI-H446 [22]): 93.4%
- Activity (H69AR [23]): Active
- inhibition (NCI-H446 [24]): Active
- Activity (H69AR [25]): 0.62%
- Activity (H69AR [26]): 32.38%
- Activity (Mus musculus [27]): Active
- Activity (NCI-H446 [28]): Active
- Activity (NCI-H446 [29]): Active
- Activity (NCI-H446 [30]): Active
- inhibition (NCI-H446 [31]): Active
